In ChEMBL document CHEMBL5678818, “Discovery of potent SOS1 inhibitors that block RAS activation via disruption of the RAS-SOS1 interaction” (Proc Natl Acad Sci U S A, 2019):

Legend:
[1] = target: LIM domain kinase 2 (Homo sapiens) (UniProt P53671); assay: Inhibition of LIMK2 (unknown origin) assessed as residual activity at 1000 nM by KINOMEscan analysis relative to control
[2] = target: Mitogen-activated protein kinase kinase kinase 12 (Homo sapiens) (UniProt Q12852); assay: Inhibition of DLK (unknown origin) assessed as residual activity at 1000 nM by KINOMEscan analysis relative to control
[3] = test system: Phosphatidylinositol 4,5-bisphosphate 3-kinase catalytic subunit alpha isoform (Homo sapiens), P42336 [M1043I]; assay: Inhibition of PIK3CA M1043I mutant (unknown origin) assessed as residual activity at 1000 nM by KINOMEscan analysis relative to control
[4] = target: T1, Mitogen-activated protein kinase kinase kinase 6 (Homo sapiens) (UniProt O95382); assay: Inhibition of ASK2 (unknown origin) assessed as residual activity at 1000 nM by KINOMEscan analysis relative to control
T1 sequence (whole entry): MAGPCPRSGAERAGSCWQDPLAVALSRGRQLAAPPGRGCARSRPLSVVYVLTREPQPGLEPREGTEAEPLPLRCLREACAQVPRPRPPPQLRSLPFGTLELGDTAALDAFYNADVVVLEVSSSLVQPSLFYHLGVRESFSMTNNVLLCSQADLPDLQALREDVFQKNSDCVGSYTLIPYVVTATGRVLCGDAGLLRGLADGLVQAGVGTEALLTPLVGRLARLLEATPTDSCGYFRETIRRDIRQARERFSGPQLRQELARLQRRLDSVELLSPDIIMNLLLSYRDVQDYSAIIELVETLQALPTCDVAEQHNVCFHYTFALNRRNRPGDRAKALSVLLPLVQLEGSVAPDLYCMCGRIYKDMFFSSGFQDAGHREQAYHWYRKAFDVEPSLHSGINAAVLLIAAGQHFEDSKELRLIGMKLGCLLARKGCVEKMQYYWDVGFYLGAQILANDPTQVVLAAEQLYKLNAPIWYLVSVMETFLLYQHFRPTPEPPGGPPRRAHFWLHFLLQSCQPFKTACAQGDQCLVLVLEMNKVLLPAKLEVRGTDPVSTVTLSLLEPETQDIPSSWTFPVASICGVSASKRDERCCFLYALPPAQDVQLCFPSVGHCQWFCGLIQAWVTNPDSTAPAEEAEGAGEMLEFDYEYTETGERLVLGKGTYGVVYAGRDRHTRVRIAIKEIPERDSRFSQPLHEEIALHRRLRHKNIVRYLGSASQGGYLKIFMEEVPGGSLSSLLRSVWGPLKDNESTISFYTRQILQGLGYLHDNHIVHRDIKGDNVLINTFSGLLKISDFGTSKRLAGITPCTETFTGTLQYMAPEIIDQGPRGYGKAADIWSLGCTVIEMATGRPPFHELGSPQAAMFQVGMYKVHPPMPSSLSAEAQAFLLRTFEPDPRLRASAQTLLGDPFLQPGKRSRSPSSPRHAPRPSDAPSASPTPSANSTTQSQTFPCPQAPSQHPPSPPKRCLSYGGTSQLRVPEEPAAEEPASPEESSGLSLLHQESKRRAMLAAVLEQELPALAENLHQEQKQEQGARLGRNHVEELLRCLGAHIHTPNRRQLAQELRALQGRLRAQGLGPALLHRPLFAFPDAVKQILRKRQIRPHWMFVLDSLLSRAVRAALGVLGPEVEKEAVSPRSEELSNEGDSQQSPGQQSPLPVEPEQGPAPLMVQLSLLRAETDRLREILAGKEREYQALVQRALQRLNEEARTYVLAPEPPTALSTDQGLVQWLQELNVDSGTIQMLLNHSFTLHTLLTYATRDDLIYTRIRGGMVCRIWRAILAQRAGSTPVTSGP

[5] = target: Tyrosine-protein kinase Fgr (Homo sapiens) (UniProt P09769); assay: Inhibition of FGR (unknown origin) assessed as residual activity at 1000 nM by KINOMEscan analysis relative to control
[6] = target: Calcium/calmodulin-dependent protein kinase type II subunit beta (Homo sapiens) (UniProt Q13554); assay: Inhibition of CAMK2B (unknown origin) assessed as residual activity at 1000 nM by KINOMEscan analysis relative to control
[7] = target: Serine/threonine-protein kinase 32C (Homo sapiens) (UniProt Q86UX6); assay: Inhibition of YANK3 (unknown origin) assessed as residual activity at 1000 nM by KINOMEscan analysis relative to control
[8] = test system: Mast/stem cell growth factor receptor Kit (Homo sapiens), P10721 [D816H]; assay: Inhibition of KIT D816H mutant (unknown origin) assessed as residual activity at 1000 nM by KINOMEscan analysis relative to control
[9] = target: Fibroblast growth factor receptor 1 (Homo sapiens) (UniProt P11362); assay: Inhibition of FGFR1 (unknown origin) assessed as residual activity at 1000 nM by KINOMEscan analysis relative to control
[10] = target: Cyclin-dependent kinase-like 3 (Homo sapiens) (UniProt Q8IVW4); assay: Inhibition of CDKL3 (unknown origin) assessed as residual activity at 1000 nM by KINOMEscan analysis relative to control
[11] = target: Serine/threonine-protein kinase MAK (Homo sapiens) (UniProt P20794); assay: Inhibition of MAK (unknown origin) assessed as residual activity at 1000 nM by KINOMEscan analysis relative to control
[12] = target: T2, Megakaryocyte-associated tyrosine-protein kinase (Homo sapiens) (UniProt P42679); assay: Inhibition of CTK (unknown origin) assessed as residual activity at 1000 nM by KINOMEscan analysis relative to control
T2 sequence (whole entry): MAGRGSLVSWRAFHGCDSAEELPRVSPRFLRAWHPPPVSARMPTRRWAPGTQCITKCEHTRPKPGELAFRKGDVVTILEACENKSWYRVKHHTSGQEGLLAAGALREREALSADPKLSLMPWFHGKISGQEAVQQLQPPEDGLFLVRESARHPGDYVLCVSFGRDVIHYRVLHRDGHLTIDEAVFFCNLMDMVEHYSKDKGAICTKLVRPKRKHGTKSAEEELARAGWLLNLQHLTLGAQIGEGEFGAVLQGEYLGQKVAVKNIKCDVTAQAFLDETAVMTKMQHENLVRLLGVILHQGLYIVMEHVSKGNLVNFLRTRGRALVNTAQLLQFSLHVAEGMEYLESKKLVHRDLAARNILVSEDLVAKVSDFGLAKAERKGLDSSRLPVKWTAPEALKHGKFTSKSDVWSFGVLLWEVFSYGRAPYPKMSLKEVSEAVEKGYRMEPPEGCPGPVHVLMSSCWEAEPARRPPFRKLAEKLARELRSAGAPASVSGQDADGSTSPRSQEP

[13] = target: Calcium/calmodulin-dependent protein kinase kinase 1 (Homo sapiens) (UniProt Q8N5S9); assay: Inhibition of CAMKK1 (unknown origin) assessed as residual activity at 1000 nM by KINOMEscan analysis relative to control
[14] = target: Cyclin-dependent kinase 8 (Homo sapiens) (UniProt P49336); assay: Inhibition of CDK8 (unknown origin) assessed as residual activity at 1000 nM by KINOMEscan analysis relative to control
Sequence of Cyclin-dependent kinase 8 (Homo sapiens) (P49336 whole entry): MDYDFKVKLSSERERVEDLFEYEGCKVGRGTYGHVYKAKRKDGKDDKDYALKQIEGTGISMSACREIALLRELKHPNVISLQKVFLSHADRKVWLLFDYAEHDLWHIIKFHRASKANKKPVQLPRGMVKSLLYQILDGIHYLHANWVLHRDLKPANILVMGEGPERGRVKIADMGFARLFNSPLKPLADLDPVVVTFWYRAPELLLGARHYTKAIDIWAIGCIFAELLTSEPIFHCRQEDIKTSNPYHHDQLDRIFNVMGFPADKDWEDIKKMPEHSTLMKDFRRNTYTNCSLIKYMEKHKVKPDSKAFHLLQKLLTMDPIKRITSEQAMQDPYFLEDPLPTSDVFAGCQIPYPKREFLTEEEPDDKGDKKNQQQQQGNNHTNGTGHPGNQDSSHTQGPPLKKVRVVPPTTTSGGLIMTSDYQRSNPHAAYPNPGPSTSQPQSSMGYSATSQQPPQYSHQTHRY

Sequence of Mitogen-activated protein kinase kinase kinase 12 (Homo sapiens) (Q12852 whole entry, looked up, canonical isoform): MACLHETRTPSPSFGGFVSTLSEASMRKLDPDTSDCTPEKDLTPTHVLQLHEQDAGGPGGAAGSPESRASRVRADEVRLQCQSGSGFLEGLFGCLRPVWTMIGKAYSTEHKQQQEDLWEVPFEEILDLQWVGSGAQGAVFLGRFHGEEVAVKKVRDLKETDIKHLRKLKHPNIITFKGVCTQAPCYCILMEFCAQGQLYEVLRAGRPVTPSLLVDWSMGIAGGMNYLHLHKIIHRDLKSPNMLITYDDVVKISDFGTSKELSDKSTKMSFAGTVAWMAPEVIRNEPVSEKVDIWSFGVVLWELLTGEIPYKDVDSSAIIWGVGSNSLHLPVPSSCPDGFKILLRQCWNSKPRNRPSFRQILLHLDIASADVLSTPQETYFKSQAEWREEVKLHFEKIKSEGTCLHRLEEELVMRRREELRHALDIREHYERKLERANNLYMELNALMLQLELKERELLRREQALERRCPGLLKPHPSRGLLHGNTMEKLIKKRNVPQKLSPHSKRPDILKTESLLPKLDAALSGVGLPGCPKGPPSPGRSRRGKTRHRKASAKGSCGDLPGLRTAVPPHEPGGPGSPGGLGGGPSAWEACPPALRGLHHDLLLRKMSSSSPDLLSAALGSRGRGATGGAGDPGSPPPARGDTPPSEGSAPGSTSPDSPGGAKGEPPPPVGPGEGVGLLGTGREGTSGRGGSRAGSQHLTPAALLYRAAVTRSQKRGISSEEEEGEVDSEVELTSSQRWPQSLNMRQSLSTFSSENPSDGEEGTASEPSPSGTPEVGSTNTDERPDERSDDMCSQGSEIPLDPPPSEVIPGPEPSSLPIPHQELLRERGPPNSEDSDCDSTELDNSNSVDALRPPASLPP
Sequence of Tyrosine-protein kinase Fgr (Homo sapiens) (P09769 2-529 limits assumed): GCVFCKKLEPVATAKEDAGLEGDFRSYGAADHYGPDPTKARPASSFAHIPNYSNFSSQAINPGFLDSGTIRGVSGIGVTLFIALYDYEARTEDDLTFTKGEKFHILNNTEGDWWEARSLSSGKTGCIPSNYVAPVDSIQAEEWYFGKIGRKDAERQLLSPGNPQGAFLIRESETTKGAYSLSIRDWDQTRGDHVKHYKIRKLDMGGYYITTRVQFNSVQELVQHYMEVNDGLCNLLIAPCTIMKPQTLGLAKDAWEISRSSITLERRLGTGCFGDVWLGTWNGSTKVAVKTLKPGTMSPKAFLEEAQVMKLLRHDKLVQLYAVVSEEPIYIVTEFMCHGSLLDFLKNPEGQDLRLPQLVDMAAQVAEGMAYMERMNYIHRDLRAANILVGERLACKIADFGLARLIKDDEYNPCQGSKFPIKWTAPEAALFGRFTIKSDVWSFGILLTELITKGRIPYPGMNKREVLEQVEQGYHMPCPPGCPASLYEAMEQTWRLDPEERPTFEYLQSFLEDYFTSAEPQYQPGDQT
Sequence of Serine/threonine-protein kinase 32C (Homo sapiens) (Q86UX6 whole entry): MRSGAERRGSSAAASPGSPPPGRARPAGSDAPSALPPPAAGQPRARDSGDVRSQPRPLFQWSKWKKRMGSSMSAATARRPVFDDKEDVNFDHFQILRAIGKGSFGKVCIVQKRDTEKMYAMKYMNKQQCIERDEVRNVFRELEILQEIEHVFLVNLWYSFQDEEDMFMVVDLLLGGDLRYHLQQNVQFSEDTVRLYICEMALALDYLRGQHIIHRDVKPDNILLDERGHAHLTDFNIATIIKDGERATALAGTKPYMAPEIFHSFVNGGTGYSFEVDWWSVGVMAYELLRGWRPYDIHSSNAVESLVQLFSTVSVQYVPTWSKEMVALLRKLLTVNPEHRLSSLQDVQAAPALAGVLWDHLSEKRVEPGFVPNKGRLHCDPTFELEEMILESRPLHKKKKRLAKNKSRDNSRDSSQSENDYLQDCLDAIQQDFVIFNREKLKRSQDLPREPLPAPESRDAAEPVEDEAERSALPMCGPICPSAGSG
Sequence of LIM domain kinase 2 (Homo sapiens) (P53671 whole entry, looked up, the tested form may be a part): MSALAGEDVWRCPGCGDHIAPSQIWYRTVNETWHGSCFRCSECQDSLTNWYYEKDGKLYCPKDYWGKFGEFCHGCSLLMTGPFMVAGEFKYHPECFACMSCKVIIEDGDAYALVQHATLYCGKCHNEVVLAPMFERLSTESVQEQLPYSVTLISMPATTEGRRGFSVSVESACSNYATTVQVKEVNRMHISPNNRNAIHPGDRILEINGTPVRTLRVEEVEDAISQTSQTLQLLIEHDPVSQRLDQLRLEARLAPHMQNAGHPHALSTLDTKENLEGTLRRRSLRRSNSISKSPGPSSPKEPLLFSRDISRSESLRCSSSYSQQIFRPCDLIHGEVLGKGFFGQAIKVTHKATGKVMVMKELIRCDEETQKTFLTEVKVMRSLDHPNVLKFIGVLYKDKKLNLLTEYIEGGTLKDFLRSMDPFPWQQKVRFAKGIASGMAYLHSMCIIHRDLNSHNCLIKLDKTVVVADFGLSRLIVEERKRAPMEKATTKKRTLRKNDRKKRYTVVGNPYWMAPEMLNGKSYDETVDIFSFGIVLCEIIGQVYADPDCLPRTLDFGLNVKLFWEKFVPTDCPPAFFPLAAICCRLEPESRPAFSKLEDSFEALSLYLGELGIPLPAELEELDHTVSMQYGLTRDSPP
Sequence of Mast/stem cell growth factor receptor Kit (Homo sapiens), P10721 [D816H] (P10721 whole entry D816H): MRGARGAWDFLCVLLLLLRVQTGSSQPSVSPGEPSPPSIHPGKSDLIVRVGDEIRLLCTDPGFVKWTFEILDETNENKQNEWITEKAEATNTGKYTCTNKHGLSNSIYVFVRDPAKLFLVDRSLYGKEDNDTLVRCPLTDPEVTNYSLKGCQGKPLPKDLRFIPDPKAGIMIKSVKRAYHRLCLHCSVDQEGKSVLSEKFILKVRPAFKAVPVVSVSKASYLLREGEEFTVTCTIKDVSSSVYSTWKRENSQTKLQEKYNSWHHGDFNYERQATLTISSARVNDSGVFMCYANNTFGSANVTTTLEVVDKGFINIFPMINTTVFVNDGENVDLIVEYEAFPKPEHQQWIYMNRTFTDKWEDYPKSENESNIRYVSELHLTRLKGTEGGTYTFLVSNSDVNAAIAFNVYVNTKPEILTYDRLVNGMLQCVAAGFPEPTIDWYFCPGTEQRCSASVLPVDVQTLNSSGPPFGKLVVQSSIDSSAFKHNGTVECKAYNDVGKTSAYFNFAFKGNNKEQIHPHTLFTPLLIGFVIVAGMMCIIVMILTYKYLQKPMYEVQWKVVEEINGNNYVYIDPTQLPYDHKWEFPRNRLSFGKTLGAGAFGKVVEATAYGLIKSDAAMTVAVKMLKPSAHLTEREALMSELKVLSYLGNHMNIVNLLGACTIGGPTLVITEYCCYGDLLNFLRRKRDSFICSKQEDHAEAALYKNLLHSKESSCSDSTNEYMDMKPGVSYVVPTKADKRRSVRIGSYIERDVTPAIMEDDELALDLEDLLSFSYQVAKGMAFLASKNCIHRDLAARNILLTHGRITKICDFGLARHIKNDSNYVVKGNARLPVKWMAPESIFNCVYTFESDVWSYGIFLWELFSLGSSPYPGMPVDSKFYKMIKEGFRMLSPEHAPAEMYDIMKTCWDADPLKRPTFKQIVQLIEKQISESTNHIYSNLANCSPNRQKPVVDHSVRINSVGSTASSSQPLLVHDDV
Sequence of Calcium/calmodulin-dependent protein kinase kinase 1 (Homo sapiens) (Q8N5S9 whole entry, looked up): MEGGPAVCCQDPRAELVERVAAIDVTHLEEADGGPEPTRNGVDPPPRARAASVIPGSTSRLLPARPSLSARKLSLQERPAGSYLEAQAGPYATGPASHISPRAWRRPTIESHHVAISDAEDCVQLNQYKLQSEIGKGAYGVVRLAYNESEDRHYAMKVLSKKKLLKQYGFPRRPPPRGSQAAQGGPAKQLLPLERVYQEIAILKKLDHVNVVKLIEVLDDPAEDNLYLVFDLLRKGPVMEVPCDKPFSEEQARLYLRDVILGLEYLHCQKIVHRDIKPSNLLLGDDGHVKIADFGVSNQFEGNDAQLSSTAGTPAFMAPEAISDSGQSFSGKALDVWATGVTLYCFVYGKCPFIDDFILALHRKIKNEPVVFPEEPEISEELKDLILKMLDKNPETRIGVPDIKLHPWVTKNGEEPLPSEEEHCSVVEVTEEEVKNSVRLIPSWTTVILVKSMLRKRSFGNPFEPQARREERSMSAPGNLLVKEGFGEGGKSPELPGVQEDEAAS
Sequence of Cyclin-dependent kinase-like 3 (Homo sapiens) (Q8IVW4 whole entry, looked up): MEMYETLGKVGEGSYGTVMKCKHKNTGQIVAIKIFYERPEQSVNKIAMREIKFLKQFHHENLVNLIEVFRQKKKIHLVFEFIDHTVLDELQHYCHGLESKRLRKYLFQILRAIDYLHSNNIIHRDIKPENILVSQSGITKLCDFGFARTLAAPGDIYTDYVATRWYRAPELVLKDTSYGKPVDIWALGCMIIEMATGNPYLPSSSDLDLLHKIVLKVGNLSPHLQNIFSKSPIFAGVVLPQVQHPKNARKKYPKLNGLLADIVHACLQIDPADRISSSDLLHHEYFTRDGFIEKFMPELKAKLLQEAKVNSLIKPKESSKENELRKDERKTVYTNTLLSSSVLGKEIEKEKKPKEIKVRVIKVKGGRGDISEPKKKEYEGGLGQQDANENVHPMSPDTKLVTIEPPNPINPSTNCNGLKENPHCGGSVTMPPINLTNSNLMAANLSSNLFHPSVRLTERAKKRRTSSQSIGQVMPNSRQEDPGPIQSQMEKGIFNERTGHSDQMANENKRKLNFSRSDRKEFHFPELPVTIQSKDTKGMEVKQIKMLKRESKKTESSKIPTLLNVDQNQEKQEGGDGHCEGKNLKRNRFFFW

| SMILES | Activity [1] | Activity [2] | Activity [3] | Activity [4] | Activity [5] | Activity [6] | Activity [7] | Activity [8] | Activity [9] | Activity [10] | Activity [11] | Activity [12] | Activity [13] | Activity [14] |
| --- | --- | --- | --- | --- | --- | --- | --- | --- | --- | --- | --- | --- | --- | --- |
| COc1cc2nc(C)nc(N[C@H](C)c3cccc(-c4cn[nH]c4)c3)c2cc1OC | 100% | 95% | 100% | 69% | 48% | 97% | 98% | 88% | 65% | 87% | 80% | 99% | 73% | 91% |
| COc1cc2ncnc(N[C@H](C)c3cccc4ccccc34)c2cc1OC | 92% | 92% | 92% | 67% | 95% | 96% | 100% | 97% | 80% | 84% | 100% | 62% | 97% | 93% |
